Measured values as given in patent US11318107B2, “Pharmaceutical active-containing film delivery device for oral transmucosal administration” (Avior, Inc., priority 2019, dated 2022).
Where a name gives a salt, the structure may show the parent alone.

How the values were obtained:
[1] = cited from earlier work
[2] = Pharmacokinetic study of nalmefene buccal films and nalmefene IV in beagle dogs (plasma, LC/MS, noncompartmental analysis); conditions: majority of concentrations, after buccal film or IV nalmefene, lower limit of quantitation 0.1 ng/mL
[3] = Solubility of nalmefene HCl in polar solvents at 100 mg/mL; type: physicochemical; conditions: test concentration 100 mg/mL
Source text: Ethanol, propylene glycol, glycerol, methanol, and water were considered.

[4] = Solubility evaluation of nalmefene in solvent systems; type: physicochemical
Protocol: In addition, the solubility of nalmefene in varying concentrations was evaluated using different combinations of solvent systems. The solvent systems included combinations of polar solvents with different surface active agents. The solvent systems provided different volatilization rates. […] Exemplary surface active agents included: Tween 20, Tween 80, Gelucire® 34/44, Kolliphor® HS 15, Solutol® NF, Labrafil® M2125 CS and Labrafil® M1944 CS.

in vivo = conditions: both, beagle, dog, plasma, iv, 4 mg/animal

In the case of `C=C1CC[C@@]2(O)[C@H]3Cc4ccc(O)c5c4[C@@]2(CCN3CC2CC2)[C@H]1O5` [Nalmefene hydrochloride], the pKa1 ([1]; amine) is listed as 8.38, the “log P” value [1] is listed as 2.66 and the Solubility in water ([1]; freely soluble) is listed as “up to 130 mg/mL”. The pKa2 ([1]; phenol) was 10.00 and the Solubility in chloroform ([1]; slightly soluble) was “up to 0.13 mg/mL”.

In the case of `C=C1CC[C@@]2(O)[C@H]3Cc4ccc(O)c5c4[C@@]2(CCN3)[C@H]1O5` [nornalmefene], the “Nornalmefene (metabolite) plasma concentrations” value [2] is reported as “below the limit of quantitation”.

In the case of `C=C1CC[C@@]2(O)[C@H]3Cc4ccc(O)c5c4[C@@]2(CCN3CC2CC2)[C@H]1O5` [Nalmefene HCl Monohydrate], the “Solubility of Nalmefene HCl Monohydrate” value ([3]; Ethanol NF) is reported as “Partially”, the “Solubility of Nalmefene HCl Monohydrate” value ([3]; Glycerol USP) is reported as “Partially” and the “Solubility of Nalmefene HCl Monohydrate” value ([3]; Methanol) is reported as “Highly”. The “Solubility of Nalmefene HCl Monohydrate” value ([3]; Propylene glycol USP) was “Partially” and the “Solubility of Nalmefene HCl Monohydrate” value ([3]; Water NF) was “Moderately high”.

For `C=C1CC[C@@]2(O)[C@H]3Cc4ccc(O)c5c4[C@@]2(CCN3CC2CC2)[C@H]1O5` [nalmefene, 6-methylene-6-deoxy-N-cyclopropylmethyl-14 hydroxydihydronormorphine], the Solubility observation ([4]; Ethanol:Water 75:25, nalmefene 200 mg/mL) was “Completely Soluble,”, the Solubility observation ([4]; Ethanol:Water:Gelucire 34/14 75:20:5, nalmefene 200 mg/mL) was “Completely Soluble,” and the Solubility observation ([4]; Ethanol:Water:Glycerine 70:20:10, nalmefene 300 mg/mL) was “Completely Soluble,”. For the same molecule, the Solubility observation ([4]; Ethanol:Water:Labrafil M1944 CS 80:17.5:2.5, nalmefene 200 mg/mL) was “Completely Soluble,”, the Solubility observation ([4]; Ethanol:Water:Labrafil M2125 OS 80:17.5:2.5, nalmefene 200 mg/mL) was “Completely Soluble,” and the Solubility observation ([4]; Ethanol:Water:Propylene Glycol 68:22:10, nalmefene 350 mg/mL) was “Completely Soluble,”. For the same molecule, the Solubility observation ([4]; Ethanol:Water:Propylene Glycol 82.5:12.5:5, nalmefene 200 mg/mL) was “Completely Soluble,”, the Solubility observation ([4]; Ethanol:Water:Propylene Glycol:Tween 80 70:25:4:1, nalmefene 350 mg/mL) was “Completely Soluble,” and the Solubility observation ([4]; Ethanol:Water:Tween 20 75:24.5:0.5, nalmefene 250 mg/mL) was “Completely Soluble,”. The Vd (in vivo) was 2.77 L/kg, the clearance (in vivo) was 46.2 mL/min/kg and the half-life (in vivo) was 1.34 h.
